Measured values reported in patent US20080170990A1, “Methods for Myocardial Imaging in Patients Having a History of Pulmonary Disease” (CV THERAPEUTICS, INC., priority 2006, published 2008).

Legend:
awake rats = experiment: Sympathoexcitation: heart rate, blood pressure and plasma catecholamines after i.v. bolus (Example 5); type: in vivo, rat; settings: in the presence of hexamethonium 10 mg/kg, n=5
Procedure: CVT (0.31 μg/kg-50 μg/kg) was given as a rapid i.v. bolus to awake rats and heart rate (HR) and blood pressure (BP) were monitored. Regadenoson caused an increase in BP and systolic pressure (SP) at lower doses while at higher doses there was a decrease in BP and SP. […] The increase in HR was evident at the lowest dose of CVT at which there was no appreciable decrease in BP. ZM241385 (30 μg/kg, N=5), an A2A adenosine receptor antagonist, attenuated the decrease in BP (Regadenoson: 14±3%, ZM: 1±1%) and the increase in HR (CVT: 27±3%, ZM: 18±3%) caused by Regadenoson. Pretreatment with metoprolol (MET, 1 mg/kg, n=5), a beta-blocker, attenuated the increase in HR (CVT: 27±3%, MET: 15±2%), but had no effect on hypotension caused by Regadenoson. In the presence of hexamethonium (HEX, 10 mg/kg, n=5), a ganglionic blocker, the tachycardia was prevented (CVT: 27±3%, HEX: −1±2%), but BP was further reduced (CVT: −11±2%, HEX: −49±5%).

[1] = tested on: subjects undergoing stress/rest MPI; experiment: Stress/rest SPECT myocardial perfusion imaging, adenosine vs Regadenoson (Example 6); type: in vivo, human; settings: SPECT MPI, 17-segment model; p=n.s.
Procedure: To determine the ability of Regadenoson to produce coronary hyperemia and accurately detect CAD, 35 subjects (26 men, 9 women; 67±10 years) underwent both A and Regadenoson stress/rest MPI, with 10.0±9.1 days between studies. […] Regadenoson [400 mcg (n=18), 500 mcg (n=17)] was administered as an IV bolus immediately followed by a saline flush, and then a Tc-99m radiopharmaceutical [sestamibi (n=34), tetrofosmin (n=1)]. SPECT images were uniformly processed, intermixed with control studies (normal and fixed-only defects), and interpreted by three observers in a blinded fashion using a 17-segment model. Quantitative analysis was also performed using 4D MSPECT. In addition to three separate readings, a consensus interpretation was performed and then a direct, same-screen comparison of A and REGADENASON images undertaken to determine relative differences, using 5 regions per study.

[2] = tested on: patients undergoing a clinically indicated coronary catheterization; experiment: Coronary blood flow velocity (CBFv) by Doppler flow wire after IV bolus, open label study (Example 1); type: in vivo, human; settings: 18 μg intracoronary (IC) Ado; mean ±SD
Procedure: The purpose of this open label study was to determine the magnitude and duration of effect of Regadenoson (10-500 μg) on CBFv in humans.
Patients undergoing a clinically indicated coronary catheterization with no more than a 70% stenosis in any coronary artery and no more than a 50% stenosis of the study vessel had CBFv determined by Doppler flow wire. Study subjects were selected after measuring baseline and peak CBFv after an intracoronary (IC) injection of 18 μg of Ado. Twenty-three patients, who were identified as meeting the study criteria of having a peak to baseline CBFv ration of ≧2.5 in response to Adenosine, received a rapid (≦10 sec) peripheral IV bolus of Regadenoson; Doppler signals were stable and interpretable over the time-course of the increase in CBFv in 17 patients.

COPD patients = settings: both, human, in vivo
Source text: COPD patients were selected from two phase III randomized, triple-blind, placebo-controlled, multicenter studies (N=2,015) designed to test the strength of agreement for reversible cardiac defects between ADO and REG. There were 35 patients in the ADO group and 69 in the Regadenoson group. Age and gender were similar between ADO (68=11 yrs; 77% male) and Regadenoson group (68±11 yrs; 81% male). Of the 35 patients, 5 suffered (14%) cardiac symptoms in the ADO group vs 3/69 (4%) in the Regadenoson group (p=0.12); 14/35 (40%) in the ADO vs. 20/69 (29%) in the Regadenoson group resorted respiratory symptoms (p=0.28). Angina, occurrence of second degree AV block, acute pulmonary oedema and ronchi were higher in ADO group; nausea, GI discomfort and headache occurred more often in the Regadenoson group.

SMILES | BP change caused by Regadenoson (awake rats) [%] | HR change (tachycardia) caused by Regadenoson (awake rats) [%] | summed score following stress, visual analysis [1] | peak to baseline CBFv ratio [2] | patients with cardiac symptoms (COPD patients) [%] | patients with cardiac symptoms, number (COPD patients) | patients with respiratory symptoms (COPD patients) [%] | patients with respiratory symptoms, number (COPD patients)
C[N+](C)(C)CCCCCC[N+](C)(C)C [hexamethonium, reference compound] | −49±5 | −1±2 | – | – | – | – | – | –
Nc1ncnc2c1ncn2[C@@H]1O[C@H](CO)[C@@H](O)[C@H]1O [ADO, adenosine, reference compound] | – | – | 133.9±1.5 | 3.2±0.5 | 14 | 5 | 40 | 14/35
